Test results reported in the supplement of paper PMC10307832.

Tests used:
Experiment in all cases: relative viability (nuclei count vs DMSO), 5 days (fraction); higher = more cells survive
NCI-H1563 = test system: NCI-H1563
Outline: (§1)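 For relative viability, nuclei counts in treated wells were divided by those in vehicle wells. Lung cancer cell lines had been pin-tool dosed in 1536-well plates the day after seeding and cultured for 5 days, then fixed and stained in one step (final 0.05% Triton X-100, 1% formaldehyde, 1 ug/ml Hoechst) and imaged at 4×. Doses were one drug alone or a fixed anchor-drug dose plus five library-drug doses (not always all listed) in √10 steps, and values are duplicate-plate medians.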

ABC-1 = test system: ABC-1
Outline: as §1

NCI-H520 = test system: NCI-H520
Outline: as §1

NCI-H1734 = test system: NCI-H1734
Outline: as §1

H3255 = test system: H3255
Outline: as §1

PC-14 = test system: PC-14
Outline: as §1

NCI-H1650 = test system: NCI-H1650
Outline: as §1

EKVX = test system: EKVX
Outline: as §1

RERF-LC-KJ = test system: RERF-LC-KJ
Outline: as §1

LK-2 = test system: LK-2
Outline: as §1

SW 1573 = test system: SW 1573
Outline: as §1

NCI-H1437 = test system: NCI-H1437
Outline: as §1

NCI-H2228 = test system: NCI-H2228
Outline: as §1

NCI-H2405 = test system: NCI-H2405
Outline: as §1

PC-3 [JPC-3] = test system: PC-3 [JPC-3]
Outline: as §1

HCC-15 = test system: HCC-15
Outline: as §1

NCI-H322M = test system: NCI-H322M
Outline: as §1

HCC-827 = test system: HCC-827
Outline: as §1

NCI-H661 = test system: NCI-H661
Outline: as §1

CAL-12T = test system: CAL-12T
Outline: as §1

COR-L23 = test system: COR-L23
Outline: as §1

NCI-H1355 = test system: NCI-H1355
Outline: as §1

## C=C1C(=O)O[C@@H](CCCCCCCC)[C@@H]1C(=O)O [C-75] + CS(=O)(=O)CCNCc1ccc(-c2ccc3ncnc(Nc4ccc(OCc5cccc(F)c5)c(Cl)c4)c3c2)o1 [Lapatinib] (partner 2 µM)
NCI-H1563; first compound 0.08 µM
  relative viability: 0.886
NCI-H1563; first compound 0.253 µM
  relative viability: 0.979
NCI-H1563; first compound 0.8 µM
  relative viability: 0.881
NCI-H1563; first compound 2.53 µM
  relative viability: 0.998
NCI-H1563; first compound 8 µM
  relative viability: 1
ABC-1; first compound 0.08 µM
  relative viability: 1.1
ABC-1; first compound 0.253 µM
  relative viability: 1.33
ABC-1; first compound 0.8 µM
  relative viability: 1.17
ABC-1; first compound 2.53 µM
  relative viability: 0.981
ABC-1; first compound 8 µM
  relative viability: 0.929
NCI-H520; first compound 0.08 µM
  relative viability: 0.835
NCI-H520; first compound 0.253 µM
  relative viability: 0.964
NCI-H520; first compound 0.8 µM
  relative viability: 0.703
NCI-H520; first compound 2.53 µM
  relative viability: 0.734
NCI-H520; first compound 8 µM
  relative viability: 0.598
NCI-H1734; first compound 0.08 µM
  relative viability: 0.981
NCI-H1734; first compound 0.253 µM
  relative viability: 1.13
NCI-H1734; first compound 0.8 µM
  relative viability: 1.02
NCI-H1734; first compound 2.53 µM
  relative viability: 0.362
NCI-H1734; first compound 8 µM
  relative viability: 0.908
H3255; first compound 0.08 µM
  relative viability: 0.277
H3255; first compound 0.253 µM
  relative viability: 0.314
H3255; first compound 0.8 µM
  relative viability: 0.254
H3255; first compound 2.53 µM
  relative viability: 0.21
H3255; first compound 8 µM
  relative viability: 0.274
PC-14; first compound 0.08 µM
  relative viability: 0.316
PC-14; first compound 0.253 µM
  relative viability: 0.259
PC-14; first compound 0.8 µM
  relative viability: 0.328
PC-14; first compound 2.53 µM
  relative viability: 0.243
PC-14; first compound 8 µM
  relative viability: 0.343
NCI-H1650; first compound 0.08 µM
  relative viability: 0.844
NCI-H1650; first compound 0.253 µM
  relative viability: 0.914
NCI-H1650; first compound 0.8 µM
  relative viability: 0.775
NCI-H1650; first compound 2.53 µM
  relative viability: 0.963
NCI-H1650; first compound 8 µM
  relative viability: 1.09
EKVX; first compound 0.08 µM
  relative viability: 0.266
EKVX; first compound 0.253 µM
  relative viability: 0.211
EKVX; first compound 0.8 µM
  relative viability: 0.224
EKVX; first compound 2.53 µM
  relative viability: 0.184
EKVX; first compound 8 µM
  relative viability: 0.214
RERF-LC-KJ; first compound 0.08 µM
  relative viability: 0.826
RERF-LC-KJ; first compound 0.253 µM
  relative viability: 0.866
RERF-LC-KJ; first compound 0.8 µM
  relative viability: 0.863
RERF-LC-KJ; first compound 2.53 µM
  relative viability: 0.872
RERF-LC-KJ; first compound 8 µM
  relative viability: 0.966
LK-2; first compound 0.08 µM
  relative viability: 1.03
LK-2; first compound 0.253 µM
  relative viability: 1.15
LK-2; first compound 0.8 µM
  relative viability: 1.08
LK-2; first compound 2.53 µM
  relative viability: 0.744
LK-2; first compound 8 µM
  relative viability: 0.622
SW 1573; first compound 0.08 µM
  relative viability: 1.14
SW 1573; first compound 0.253 µM
  relative viability: 1.14
SW 1573; first compound 0.8 µM
  relative viability: 1.15
SW 1573; first compound 2.53 µM
  relative viability: 1.04
SW 1573; first compound 8 µM
  relative viability: 0.792
NCI-H1437; first compound 0.08 µM
  relative viability: 0.757
NCI-H1437; first compound 0.253 µM
  relative viability: 0.785
NCI-H1437; first compound 0.8 µM
  relative viability: 0.746
NCI-H1437; first compound 2.53 µM
  relative viability: 0.754
NCI-H1437; first compound 8 µM
  relative viability: 0.712
NCI-H2228; first compound 0.08 µM
  relative viability: 1.11
NCI-H2228; first compound 0.253 µM
  relative viability: 1.19
NCI-H2228; first compound 0.8 µM
  relative viability: 1.1
NCI-H2228; first compound 2.53 µM
  relative viability: 0.903
NCI-H2228; first compound 8 µM
  relative viability: 1.03
NCI-H2405; first compound 0.08 µM
  relative viability: 1.07
NCI-H2405; first compound 0.253 µM
  relative viability: 0.772
NCI-H2405; first compound 0.8 µM
  relative viability: 1
NCI-H2405; first compound 2.53 µM
  relative viability: 1.07
NCI-H2405; first compound 8 µM
  relative viability: 1.06
PC-3 [JPC-3]; first compound 0.08 µM
  relative viability: 0.449
PC-3 [JPC-3]; first compound 0.253 µM
  relative viability: 0.528
PC-3 [JPC-3]; first compound 0.8 µM
  relative viability: 0.405
PC-3 [JPC-3]; first compound 2.53 µM
  relative viability: 0.485
PC-3 [JPC-3]; first compound 8 µM
  relative viability: 0.478
HCC-15; first compound 0.08 µM
  relative viability: 0.838
HCC-15; first compound 0.253 µM
  relative viability: 0.808
HCC-15; first compound 0.8 µM
  relative viability: 0.878
HCC-15; first compound 2.53 µM
  relative viability: 0.839
HCC-15; first compound 8 µM
  relative viability: 0.894
NCI-H322M; first compound 0.08 µM
  relative viability: 0.597
NCI-H322M; first compound 0.253 µM
  relative viability: 0.744
NCI-H322M; first compound 0.8 µM
  relative viability: 0.59
NCI-H322M; first compound 2.53 µM
  relative viability: 0.568
NCI-H322M; first compound 8 µM
  relative viability: 0.629
HCC-827; first compound 0.08 µM
  relative viability: 0.23
HCC-827; first compound 0.253 µM
  relative viability: 0.235
HCC-827; first compound 0.8 µM
  relative viability: 0.212
HCC-827; first compound 2.53 µM
  relative viability: 0.191
HCC-827; first compound 8 µM
  relative viability: 0.205
NCI-H661; first compound 0.08 µM
  relative viability: 0.51
NCI-H661; first compound 0.253 µM
  relative viability: 0.554
NCI-H661; first compound 0.8 µM
  relative viability: 0.43
NCI-H661; first compound 2.53 µM
  relative viability: 0.396
NCI-H661; first compound 8 µM
  relative viability: 0.407
CAL-12T; first compound 0.08 µM
  relative viability: 0.673
CAL-12T; first compound 0.253 µM
  relative viability: 0.863
CAL-12T; first compound 0.8 µM
  relative viability: 0.492
CAL-12T; first compound 2.53 µM
  relative viability: 0.604
CAL-12T; first compound 8 µM
  relative viability: 0.765
COR-L23; first compound 0.08 µM
  relative viability: 0.868
COR-L23; first compound 0.253 µM
  relative viability: 0.94
COR-L23; first compound 0.8 µM
  relative viability: 0.919
COR-L23; first compound 2.53 µM
  relative viability: 0.469
COR-L23; first compound 8 µM
  relative viability: 1.01
NCI-H1355; first compound 0.08 µM
  relative viability: 0.939
NCI-H1355; first compound 0.253 µM
  relative viability: 1.08
NCI-H1355; first compound 0.8 µM
  relative viability: 0.884
NCI-H1355; first compound 2.53 µM
  relative viability: 0.943
NCI-H1355; first compound 8 µM
  relative viability: 1.01
